# Data published in ChEMBL document CHEMBL1201862, “PubChem BioAssay data set” (2004).
# Active and inactive are the calls of the source.
# Tests used:
# [1] = biological target: Sphingosine 1-phosphate receptor 3 (Homo sapiens, UniProt Q99500); experiment: Dose response cell-based high throughput screening assay for antagonists of the Sphingosine 1-Phosphate Receptor 3 (S1P3). [Related pubchem assays: 1429, 485 ]; format: functional
# [2] = biological target: T1, Botulinum neurotoxin type F (Clostridium botulinum, UniProt P30996); experiment: High-throughput multiplex microsphere dose response for inhibitors of toxin protease, specifically Botulinum neurotoxin light chain F protease, compounds from Cherry Pick 01.; format: functional; details: read-out: EC50_MICROM
# CHO = experiment: cytotoxicity in TLR9-MyD88 CHO cells, dose response, cytotoxicity control for TLR9-MyD88 binding inhibitor project, cell-based, luminescence (AID 588339); format: functional, hamster; details: Cricetulus griseus;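 further: CHO cells stably coexpressing TLR9 and MyD88 fusions from primary screen; compound exposure lasted 48 hours before viability readout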
# [3] = biological target: T2, Botulinum neurotoxin type A (Clostridium botulinum (strain Hall / ATCC 3502 / NCTC 13319 / Type A), UniProt P0DPI1); experiment: Confirmatory FRET assay using full length substrates for Botulinum neurotoxin light chain A protease, with Powder Set01.; format: functional
# [4] = biological target: T1, Botulinum neurotoxin type F; experiment: High-throughput multiplex microsphere dose response for inhibitors of toxin protease, specifically Botulinum neurotoxin light chain F protease, compounds from Powder Set 01.; format: functional, Clostridium botulinum Bf; details: read-out: EC50_MICROM
# [5] = biological target: 5-hydroxytryptamine receptor 1E (Homo sapiens, UniProt P28566); experiment: Counterscreen assay for S1P3 antagonists: Dose response cell-based high throughput screening assay to identify antagonists of the 5-Hydroxytryptamine Receptor Subtype 1E (5HT1E). [Related pubchem assays: 1429, 485 ]; format: functional
# [6] = biological target: T2, Botulinum neurotoxin type A; experiment: High-throughput multiplex microsphere dose response for inhibitors of toxin protease, specifically Botulinum neurotoxin light chain A protease, compounds from Powder Set 01.; format: functional, Clostridium botulinum A str. ATCC 3502; details: read-out: EC50_MICROM
# [7] = biological target: T2, Botulinum neurotoxin type A; experiment: High-throughput multiplex microsphere dose response for inhibitors of toxin protease, specifically Botulinum neurotoxin light chain A protease, compounds from Cherry Pick 01.; format: functional; details: read-out: EC50_MICROM
# Beta Lactamase = Beta Lactamase (Pseudomonas aeruginosa, UniProt Q932Y6); experiment: beta-lactamase reporter inhibitor potency, dose response, artefact control for TLR9-MyD88 binding inhibitor project, BLA reporter cells, FRET fluorescence (AID 588341); format: cell-based;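 further: cell based assay in CHO-K1 cells stably expressing beta-lactamase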
# [8] = biological target: G-protein coupled receptor 55 (Homo sapiens, UniProt Q9Y2T6); experiment: GPR55 agonists via beta-arrestin recruitment, primary screen, imaging, U2OS cells, beta-arrestin-GFP redistribution (AID 1961); format: functional
# Vero = Vero cell cytotoxicity, cytotoxicity control for flavivirus capping enzyme inhibitors (AID 588742); format: functional; details: Chlorocebus sabaeus
# Protein Tat = biological target: T3, Protein Tat (Human immunodeficiency virus type 1 group M subtype B (isolate HXB2)(HIV-1), UniProt P04608); format: functional;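 further: tat binding to TAR RNA read out by fluorescence polarization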
# T3 sequence (P04608 whole entry): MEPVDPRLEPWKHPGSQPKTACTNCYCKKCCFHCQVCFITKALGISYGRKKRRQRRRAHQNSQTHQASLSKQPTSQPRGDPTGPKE
# [9] = THP-1 cell cytotoxicity, dose response, cytotoxicity control for non-replicating M. tuberculosis project (AID 489025); format: functional
# [10] = biological target: Matrix metalloproteinase-14 (Homo sapiens, UniProt P50281); experiment: Dose Response confirmation of uHTS hits for a small molecule inhibitors of MT1-MMP activation in a fluorescence assay set 2.; format: functional
# cells = format: functional
# Genome polyprotein [11] = biological target: Genome polyprotein (Hepatitis C virus, UniProt Q2Q167); experiment: HCV core protein dimerization inhibitors, dose response, biochemical, TR-FRET (AID 2159); design: species or system Hepacivirus hominis;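 further: blocks dimerization of HCV core protein measured by TR-FRET between tagged core106 pairs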
# [12] = microbe, parasite or virus in culture; format: functional; details: Mycobacterium tuberculosis
# [13] = THP-1 cell cytotoxicity, dose response, cytotoxicity control for Vif-APOBEC3G degradation inhibitor project, THP-1 cells (AID 1117359); format: functional; details: Human immunodeficiency virus 1, THP-1
# [14] = Luminescence Cell-Based Dose Retest to Confirm Inhibitors of Cancer Stem Cells. [Related pubchem assays (depositor defined):AID2717, AID2721]; format: functional; details: Homo sapiens
# [15] = biological target: DNA (cytosine-5)-methyltransferase 1 (Homo sapiens, UniProt P26358); experiment: DNMT1 methyltransferase inhibitors, confirmation, biochemical, fluorescent molecular beacon (AID 602386); format: functional
# [16] = A High Throughput Confirmatory Assay used to Identify Novel Compounds that Inhibit Mycobacterium Tuberculosis in the absence of Glycerol.; format: functional
# Genome polyprotein [17] = biological target: Genome polyprotein (dengue virus type 2, UniProt P29990); experiment: Dengue-2 NS5 methyltransferase inhibitors, primary screen, biochemical, confirmation dose response (AID 588689); format: functional
# [18] = A Cell Based Secondary Assay to Explore Cytotoxicity in HepG2 Cells of Compounds that Modulate Mycobacterium tuberculosis in Media Containing Glycerol versus Media without Glycerol (2).; format: functional
# [19] = Vero cell cytotoxicity, cytotoxicity control for M. tuberculosis inhibitor project, purified and synthesized samples, set 3 (AID 504684); format: functional
# [20] = A Cell Based Secondary Assay to Explore Cytotoxicity in THP-1 Cells of Compounds that Modulate Mycobacterium tuberculosis in Media Containing Glycerol versus Media without Glycerol (2).; format: functional
# 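Wherever AC50 is given: cells exposed to compound for roughly 70 hours or longer before luminescence read.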
# T2 sequence (P0DPI1 2-448 limits assumed): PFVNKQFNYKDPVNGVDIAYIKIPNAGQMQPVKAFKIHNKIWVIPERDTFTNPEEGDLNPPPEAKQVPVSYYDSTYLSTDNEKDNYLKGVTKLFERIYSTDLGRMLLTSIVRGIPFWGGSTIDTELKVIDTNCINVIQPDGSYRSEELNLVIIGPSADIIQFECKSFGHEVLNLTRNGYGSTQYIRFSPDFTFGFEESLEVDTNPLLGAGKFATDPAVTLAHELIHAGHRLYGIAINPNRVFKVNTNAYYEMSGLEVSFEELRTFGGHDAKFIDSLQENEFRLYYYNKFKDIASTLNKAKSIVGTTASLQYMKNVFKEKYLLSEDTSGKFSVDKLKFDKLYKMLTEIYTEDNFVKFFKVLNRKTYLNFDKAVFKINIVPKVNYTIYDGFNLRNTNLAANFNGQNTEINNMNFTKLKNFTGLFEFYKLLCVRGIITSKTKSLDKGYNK
# T1 sequence (P30996 1-436 limits assumed): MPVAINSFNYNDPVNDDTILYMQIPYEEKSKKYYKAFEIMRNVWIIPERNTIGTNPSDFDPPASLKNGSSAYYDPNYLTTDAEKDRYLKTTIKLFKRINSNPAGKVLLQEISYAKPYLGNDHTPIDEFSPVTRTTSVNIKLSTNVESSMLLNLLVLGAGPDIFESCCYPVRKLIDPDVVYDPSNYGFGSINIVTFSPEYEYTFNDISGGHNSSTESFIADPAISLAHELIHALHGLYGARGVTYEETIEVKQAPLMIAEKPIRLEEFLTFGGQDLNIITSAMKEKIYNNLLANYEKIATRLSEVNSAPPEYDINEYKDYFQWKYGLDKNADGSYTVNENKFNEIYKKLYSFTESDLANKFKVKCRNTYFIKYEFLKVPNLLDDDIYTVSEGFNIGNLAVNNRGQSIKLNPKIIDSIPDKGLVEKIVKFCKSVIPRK
# Sphingosine 1-phosphate receptor 3, sequence (Q99500 whole entry): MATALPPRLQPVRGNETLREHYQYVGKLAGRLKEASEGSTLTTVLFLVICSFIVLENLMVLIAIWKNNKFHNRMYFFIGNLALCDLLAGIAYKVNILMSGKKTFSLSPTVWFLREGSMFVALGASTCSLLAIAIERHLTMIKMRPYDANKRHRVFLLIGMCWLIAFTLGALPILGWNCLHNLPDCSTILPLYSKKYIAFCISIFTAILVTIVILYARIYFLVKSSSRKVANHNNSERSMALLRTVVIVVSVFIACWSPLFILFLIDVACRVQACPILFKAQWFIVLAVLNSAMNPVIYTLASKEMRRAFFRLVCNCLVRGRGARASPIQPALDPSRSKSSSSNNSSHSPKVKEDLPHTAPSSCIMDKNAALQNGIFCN
# 5-hydroxytryptamine receptor 1E, sequence (P28566 whole entry): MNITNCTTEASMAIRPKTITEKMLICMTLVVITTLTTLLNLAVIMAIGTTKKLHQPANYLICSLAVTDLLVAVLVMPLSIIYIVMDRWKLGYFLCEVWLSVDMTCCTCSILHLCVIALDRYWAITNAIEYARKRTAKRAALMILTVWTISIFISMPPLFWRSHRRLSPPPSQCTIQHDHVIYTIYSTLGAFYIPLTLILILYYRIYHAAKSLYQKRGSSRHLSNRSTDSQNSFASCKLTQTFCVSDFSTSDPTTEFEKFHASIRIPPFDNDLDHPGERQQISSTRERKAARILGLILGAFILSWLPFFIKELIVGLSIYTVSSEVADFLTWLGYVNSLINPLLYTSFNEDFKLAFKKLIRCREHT
# DNA (cytosine-5)-methyltransferase 1, sequence (P26358 whole entry): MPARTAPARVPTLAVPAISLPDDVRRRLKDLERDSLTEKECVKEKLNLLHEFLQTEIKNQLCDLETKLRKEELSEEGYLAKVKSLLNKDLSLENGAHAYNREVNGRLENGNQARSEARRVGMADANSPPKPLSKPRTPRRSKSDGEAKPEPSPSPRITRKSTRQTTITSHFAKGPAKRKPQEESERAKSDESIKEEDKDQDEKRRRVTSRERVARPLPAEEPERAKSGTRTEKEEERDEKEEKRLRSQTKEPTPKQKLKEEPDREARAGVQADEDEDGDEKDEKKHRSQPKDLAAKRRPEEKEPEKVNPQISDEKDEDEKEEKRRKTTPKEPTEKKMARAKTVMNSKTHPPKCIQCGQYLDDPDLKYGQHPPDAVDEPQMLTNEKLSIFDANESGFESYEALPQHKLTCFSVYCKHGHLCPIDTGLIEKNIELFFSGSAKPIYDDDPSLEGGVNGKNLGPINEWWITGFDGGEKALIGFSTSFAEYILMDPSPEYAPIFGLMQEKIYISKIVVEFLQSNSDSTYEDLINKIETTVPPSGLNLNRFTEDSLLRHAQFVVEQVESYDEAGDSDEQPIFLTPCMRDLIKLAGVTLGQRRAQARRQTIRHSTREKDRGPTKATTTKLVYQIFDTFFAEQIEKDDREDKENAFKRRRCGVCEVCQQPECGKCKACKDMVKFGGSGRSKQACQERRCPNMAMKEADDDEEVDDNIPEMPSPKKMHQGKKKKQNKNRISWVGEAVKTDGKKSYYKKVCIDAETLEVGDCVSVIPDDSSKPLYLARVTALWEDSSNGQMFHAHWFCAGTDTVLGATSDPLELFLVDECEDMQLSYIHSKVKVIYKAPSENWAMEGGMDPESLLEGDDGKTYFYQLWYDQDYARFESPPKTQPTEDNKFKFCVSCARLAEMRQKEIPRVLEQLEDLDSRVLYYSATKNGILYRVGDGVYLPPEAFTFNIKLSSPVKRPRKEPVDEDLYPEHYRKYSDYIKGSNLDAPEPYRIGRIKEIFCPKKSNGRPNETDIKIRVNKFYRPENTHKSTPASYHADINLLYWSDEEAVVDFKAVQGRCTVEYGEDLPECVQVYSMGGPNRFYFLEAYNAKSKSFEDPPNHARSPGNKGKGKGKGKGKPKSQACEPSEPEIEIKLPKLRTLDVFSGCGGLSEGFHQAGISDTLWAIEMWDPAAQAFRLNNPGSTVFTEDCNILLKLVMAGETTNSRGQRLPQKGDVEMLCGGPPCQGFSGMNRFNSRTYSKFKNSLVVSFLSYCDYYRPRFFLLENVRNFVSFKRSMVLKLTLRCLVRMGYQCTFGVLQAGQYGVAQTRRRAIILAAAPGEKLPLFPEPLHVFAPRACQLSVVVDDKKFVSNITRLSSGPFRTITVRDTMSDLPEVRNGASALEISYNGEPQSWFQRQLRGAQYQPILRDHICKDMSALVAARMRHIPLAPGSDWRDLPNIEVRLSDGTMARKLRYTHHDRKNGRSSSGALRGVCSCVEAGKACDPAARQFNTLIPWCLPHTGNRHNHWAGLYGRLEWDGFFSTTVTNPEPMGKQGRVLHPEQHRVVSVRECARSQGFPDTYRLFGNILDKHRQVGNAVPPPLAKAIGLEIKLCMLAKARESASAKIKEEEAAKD
# Genome polyprotein (Hepatitis C virus, UniProt Q2Q167), sequence (Q2Q167 whole entry): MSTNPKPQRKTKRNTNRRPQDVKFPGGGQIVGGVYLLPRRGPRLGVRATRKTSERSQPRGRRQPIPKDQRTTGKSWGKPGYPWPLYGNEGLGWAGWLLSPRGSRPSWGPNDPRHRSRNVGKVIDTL
# Genome polyprotein (dengue virus type 2, UniProt P29990), sequence (P29990 2492-3391 limits assumed): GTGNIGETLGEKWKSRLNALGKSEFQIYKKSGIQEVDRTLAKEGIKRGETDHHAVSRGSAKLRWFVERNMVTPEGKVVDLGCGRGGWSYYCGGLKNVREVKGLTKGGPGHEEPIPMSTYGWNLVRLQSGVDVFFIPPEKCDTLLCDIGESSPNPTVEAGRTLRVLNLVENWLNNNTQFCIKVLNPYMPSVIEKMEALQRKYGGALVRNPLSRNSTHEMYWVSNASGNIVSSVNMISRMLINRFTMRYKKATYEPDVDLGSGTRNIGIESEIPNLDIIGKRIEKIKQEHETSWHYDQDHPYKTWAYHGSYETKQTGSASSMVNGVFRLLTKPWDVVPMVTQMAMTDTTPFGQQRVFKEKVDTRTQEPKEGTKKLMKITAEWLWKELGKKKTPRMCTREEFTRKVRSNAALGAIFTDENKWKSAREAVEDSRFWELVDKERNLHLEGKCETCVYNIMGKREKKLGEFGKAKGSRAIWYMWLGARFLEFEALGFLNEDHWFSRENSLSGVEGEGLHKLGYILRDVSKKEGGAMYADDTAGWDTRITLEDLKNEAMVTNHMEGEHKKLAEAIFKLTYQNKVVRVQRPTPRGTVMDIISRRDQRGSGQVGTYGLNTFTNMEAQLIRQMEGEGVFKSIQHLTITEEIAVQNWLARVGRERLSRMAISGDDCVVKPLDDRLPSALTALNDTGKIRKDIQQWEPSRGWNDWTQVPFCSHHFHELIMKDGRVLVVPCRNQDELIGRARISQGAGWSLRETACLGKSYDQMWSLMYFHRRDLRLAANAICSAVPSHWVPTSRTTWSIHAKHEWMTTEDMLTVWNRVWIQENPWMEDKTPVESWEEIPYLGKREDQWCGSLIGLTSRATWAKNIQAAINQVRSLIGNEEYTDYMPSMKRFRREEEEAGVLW
# Beta Lactamase, sequence (Q932Y6 whole entry): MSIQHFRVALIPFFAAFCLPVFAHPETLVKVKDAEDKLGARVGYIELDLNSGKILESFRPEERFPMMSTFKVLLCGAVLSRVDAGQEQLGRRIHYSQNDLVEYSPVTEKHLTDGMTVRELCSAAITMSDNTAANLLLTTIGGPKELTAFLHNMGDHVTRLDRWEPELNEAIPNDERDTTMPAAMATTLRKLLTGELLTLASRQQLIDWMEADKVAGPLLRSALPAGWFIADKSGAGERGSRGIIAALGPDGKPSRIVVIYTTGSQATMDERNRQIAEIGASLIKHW
# G-protein coupled receptor 55, sequence (Q9Y2T6 whole entry): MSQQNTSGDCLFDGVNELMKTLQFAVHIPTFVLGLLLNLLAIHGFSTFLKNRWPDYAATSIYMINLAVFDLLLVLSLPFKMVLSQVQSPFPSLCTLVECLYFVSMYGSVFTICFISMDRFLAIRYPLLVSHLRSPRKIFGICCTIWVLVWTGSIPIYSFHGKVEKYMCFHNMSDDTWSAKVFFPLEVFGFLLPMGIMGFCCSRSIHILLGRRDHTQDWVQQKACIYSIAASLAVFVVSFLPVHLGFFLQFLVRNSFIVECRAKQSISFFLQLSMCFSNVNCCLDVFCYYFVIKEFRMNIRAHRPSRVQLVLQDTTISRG
structure (smiles),measurement,setting,value
O=[N+]([O-])c1ccc(C2=NN(c3ccccc3)C(c3ccco3)C2)cc1 (stereo unspecified),IC50,[1],3.78 µM (active)
same,EC50,[2],1.5 µM (active)
same,IC50,CHO,> 49.7 µM (inactive)
same,EC50,[3],3.1 µM (active)
same,EC50,[4],0.5 µM (active)
same,IC50,[5],2.49 µM (active)
same,EC50,[6],0.4 µM (active)
same,EC50,[7],2.6 µM (active)
same,IC50,Beta Lactamase,2.64 µM (active)
same,EC50,[8],< 0.5 µM (active)
Cn1cccc1/C=C1/C(=O)NC(=S)N(Cc2ccc(F)cc2)C1=O,CC50,Vero,> 40 µM (active)
same,IC50,Protein Tat,> 100 µM (active)
same,CC50,[9],14.5 µM (active)
same,IC50,[10],55.3 µM (inactive)
same,IC50,cells,33.9 µM (active)
same,IC50,Genome polyprotein [11],> 49.8 µM (not active)
same,CC50,[12],23 µM (active)
same,CC50,[13],> 40 µM (active)
same,AC50,[14],1.18 µM (active)
same,IC50,[15],3.55 µM (active)
same,IC50,[16],> 100 µM (active)
same,IC50,Genome polyprotein [17],> 100 µM (active)
Oc1ccccc1/C=N/Nc1ccnc(SCc2ccccc2)n1,CC50,[18],18.5 µM (active)
same,CC50,[19],26.7 µM (active)
same,CC50,[12],> 40 µM (active)
same,CC50,[20],57.4 µM (active)
